According to the supplement of paper PMC11061612:

Tests used:
Test in all cases: combination Emax (second highest fraction inhibited in the dose matrix, 72 h); higher = more inhibition; extreme values may be limits of the assay
[1] = tested on: MN-60 (B-Lymphoblastic Leukemia)
Method in brief: (§1)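 Bliss excess equals the observed combination effect minus the expected value EA + EB − EA·EB, where EA and EB are the effects of each agent alone. Combination Emax is the second-highest inhibition within the matrix. Inhibition was scaled from CellTiter-Glo 2.0 luminescence, with 0 set by vehicle wells and 1 by blank wells, after 72 hours of two-drug dosing of cells plated in 1536-well plates.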

[2] = tested on: COR-L279 (Small Cell Lung Carcinoma)
Method in brief: as §1

[3] = tested on: SNU-398 (Hepatocellular Carcinoma)
Method in brief: as §1

[4] = tested on: NCI-H661 (Non-Small Cell Lung Carcinoma)
Method in brief: as §1

[5] = tested on: KP-3 (Pancreatic Carcinoma)
Method in brief: as §1

[6] = tested on: PC-3 (Prostate Carcinoma)
Method in brief: as §1

[7] = tested on: RPMI-8226 (Plasma Cell Myeloma)
Method in brief: as §1

[8] = tested on: HCC1187 (Breast Carcinoma)
Method in brief: as §1

[9] = tested on: ESO51 (Esophageal Adenocarcinoma)
Method in brief: as §1

[10] = tested on: VMRC-RCZ (Kidney Carcinoma)
Method in brief: as §1

[11] = tested on: MOLM-13 (Acute Myeloid Leukemia)
Method in brief: as §1

[12] = tested on: SUP-B15 (B-Lymphoblastic Leukemia)
Method in brief: as §1

[13] = tested on: DAN-G (Pancreatic Carcinoma)
Method in brief: as §1

NCI-H2731 (Mesothelioma) = tested on: NCI-H2731 (Mesothelioma)
Method in brief: as §1

[14] = tested on: KY821 (Acute Myeloid Leukemia)
Method in brief: as §1

[15] = tested on: SK-GT-2 (Gastric Carcinoma)
Method in brief: as §1

[16] = tested on: NCI-H526 (Small Cell Lung Carcinoma)
Method in brief: as §1

[17] = tested on: DMS-114 (Small Cell Lung Carcinoma)
Method in brief: as §1

[18] = tested on: H9 (T-Cell Non-Hodgkin's Lymphoma)
Method in brief: as §1

[19] = tested on: IM-95 (Gastric Carcinoma)
Method in brief: as §1

| SMILES | combination Emax [1] | combination Emax [2] | combination Emax [3] | combination Emax [4] | combination Emax [5] | combination Emax [6] | combination Emax [7] | combination Emax [8] | combination Emax [9] | combination Emax [10] | combination Emax [11] | combination Emax [12] | combination Emax [13] | combination Emax (NCI-H2731 (Mesothelioma)) | combination Emax [14] | combination Emax [15] | combination Emax [16] | combination Emax [17] | combination Emax [18] | combination Emax [19] |
| --- | --- | --- | --- | --- | --- | --- | --- | --- | --- | --- | --- | --- | --- | --- | --- | --- | --- | --- | --- | --- |
| CN(CCO)CC[C@H](CSc1ccccc1)Nc1ccc(S(=O)(=O)NC(=O)c2ccc(N3CCC([C@@H](O)c4ccccc4-c4ccc(Cl)cc4)CC3)cc2)cc1S(=O)(=O)C(F)(F)F [AZD4320] + Cn1cnc2c(F)c(Nc3ccc(Br)cc3Cl)c(C(=O)NOCCO)cc21 [Selumetinib] (first compound max 1 µM, 7x7, partner max 3 µM) | 0.321 | 0.997 | 0.38 | 0.264 | 0.198 | 0.352 | 0.965 | 0.377 | 0.476 | 0.238 | 1 | 1 | 0.413 | 0.22 | 1 | 0.241 | 0.984 | 0.358 | 1 | 0.876 |
| COc1nnc2ccc(N3CCC(c4ccc(OCCN5CCN(C)C(=O)[C@H]5C)cc4)CC3)nn12 [AZD5153] + C=CCn1c(=O)c2cnc(Nc3ccc(N4CCN(C)CC4)cc3)nc2n1-c1cccc(C(C)(C)O)n1 [AZD1775] (first compound max 1 µM, partner max 1 µM) | 0.748 | 0.899 | 0.818 | 0.731 | 0.4 | 0.447 | 0.845 | 0.792 | 0.723 | 0.489 | 1 | 0.962 | 0.681 | 0.535 | 1 | 0.755 | 0.947 | 0.629 | 1 | 0.5 |
| COc1nnc2ccc(N3CCC(c4ccc(OCCN5CCN(C)C(=O)[C@H]5C)cc4)CC3)nn12 [AZD5153] + CC1(C)CCC(CN2CCN(c3ccc(C(=O)NS(=O)(=O)c4ccc(NCC5CCOCC5)c([N+](=O)[O-])c4)c(Oc4cnc5[nH]ccc5c4)c3)CC2)=C(c2ccc(Cl)cc2)C1 [Venetoclax] (first compound max 1 µM, 7x7, partner max 1 µM) | 0.692 | 0.663 | 0.447 | 0.264 | 0.21 | 0.366 | 0.8 | 0.24 | 0.581 | 0.258 | 1 | 1 | 0.268 | 0.432 | 1 | 0.256 | 0.973 | 0.607 | 1 | 0.333 |
| COc1nnc2ccc(N3CCC(c4ccc(OCCN5CCN(C)C(=O)[C@H]5C)cc4)CC3)nn12 [AZD5153] + CCN(CCO)CCCOc1ccc2c(Nc3cc(CC(=O)Nc4cccc(F)c4)[nH]n3)ncnc2c1 [AZD2811] (first compound max 1 µM, 7x7, partner max 1 µM) | 0.74 | 0.907 | 0.628 | 0.375 | 0.281 | 0.39 | 0.8 | 0.912 | 0.639 | 0.367 | 1 | 1 | 0.409 | 0.489 | 1 | 0.302 | 0.944 | 0.637 | 1 | 0.336 |
| COc1nnc2ccc(N3CCC(c4ccc(OCCN5CCN(C)C(=O)[C@H]5C)cc4)CC3)nn12 [AZD5153] + C[C@@H]1COCCN1C2=NC(=NC(=C2)C3(CC3)[S@](=N)(=O)C)C4=C5C=CNC5=NC=C4 [AZD6738] (first compound max 1 µM, 7x7, partner max 10 µM) | 0.8 | 0.972 | 0.786 | 0.698 | 0.409 | 0.5 | 0.905 | 0.696 | 0.823 | 0.58 | 1 | 1 | 0.726 | 0.699 | 1 | 0.535 | 0.947 | 0.733 | 1 | 0.44 |
| COc1nnc2ccc(N3CCC(c4ccc(OCCN5CCN(C)C(=O)[C@H]5C)cc4)CC3)nn12 [AZD5153] + Cc1c2c(nn1C)CSCc1cc(n(C)n1)CSc1cc(c3ccccc3c1)OCCCc1c(C(=O)O)n(C)c3c-2c(Cl)ccc13 [AZD5991] (first compound max 1 µM, 7x7, partner max 1 µM) | 0.719 | 0.982 | 1 | 0.891 | 0.275 | 0.376 | 1 | 1 | 0.708 | 0.323 | 1 | 1 | 0.337 | 0.528 | 1 | 0.319 | 1 | 1 | 1 | 0.798 |
| COc1nnc2ccc(N3CCC(c4ccc(OCCN5CCN(C)C(=O)[C@H]5C)cc4)CC3)nn12 [AZD5153] + Cn1cnc2c(F)c(Nc3ccc(Br)cc3Cl)c(C(=O)NOCCO)cc21 [Selumetinib] (first compound max 1 µM, 7x7, partner max 10 µM) | 0.78 | 0.682 | 0.556 | 0.305 | 0.338 | 0.299 | 0.913 | 0.383 | 0.901 | 0.308 | 1 | 1 | 0.527 | 0.39 | 1 | 0.479 | 0.941 | 0.614 | 1 | 0.564 |
| Cc1c2c(nn1C)CSCc1cc(n(C)n1)CSc1cc(c3ccccc3c1)OCCCc1c(C(=O)O)n(C)c3c-2c(Cl)ccc13 [AZD5991] + C1CN(CCC1(C(=O)N[C@@H](CCO)C2=CC=C(C=C2)Cl)N)C3=NC=NC4=C3C=CN4 [Capivasertib] (first compound max 1 µM, 7x7, partner max 3 µM) | 0.339 | 0.579 | 1 | 0.755 | 0.135 | 0.287 | 0.976 | 1 | 0.0827 | 0.336 | 1 | 1 | 0.401 | 0.21 | 1 | 0.132 | 0.47 | 0.911 | 0.847 | 0.784 |
| Cc1c2c(nn1C)CSCc1cc(n(C)n1)CSc1cc(c3ccccc3c1)OCCCc1c(C(=O)O)n(C)c3c-2c(Cl)ccc13 [AZD5991] + CC1(C)CCC(CN2CCN(c3ccc(C(=O)NS(=O)(=O)c4ccc(NCC5CCOCC5)c([N+](=O)[O-])c4)c(Oc4cnc5[nH]ccc5c4)c3)CC2)=C(c2ccc(Cl)cc2)C1 [Venetoclax] (first compound max 1 µM, 7x7, partner max 1 µM) | 0.323 | 0.244 | 1 | 0.561 | 0.129 | 0.171 | 1 | 0.997 | 0.187 | 0.21 | 1 | 1 | 0.247 | 0.0671 | 1 | 0.198 | 1 | 0.911 | 0.693 | 0.837 |
| Cc1c2c(nn1C)CSCc1cc(n(C)n1)CSc1cc(c3ccccc3c1)OCCCc1c(C(=O)O)n(C)c3c-2c(Cl)ccc13 [AZD5991] + CCN(CCO)CCCOc1ccc2c(Nc3cc(CC(=O)Nc4cccc(F)c4)[nH]n3)ncnc2c1 [AZD2811] (first compound max 1 µM, 7x7, partner max 1 µM) | 0.206 | 0.787 | 0.991 | 0.686 | 0.186 | 0.305 | 0.965 | 1 | 0.195 | 0.221 | 1 | 1 | 0.702 | 0.273 | 1 | 0.204 | 0.8 | 0.587 | 0.959 | 0.875 |
| Cc1c2c(nn1C)CSCc1cc(n(C)n1)CSc1cc(c3ccccc3c1)OCCCc1c(C(=O)O)n(C)c3c-2c(Cl)ccc13 [AZD5991] + C[C@@H](Nc1cc(F)cc(F)c1)c1cc(C(=O)N(C)C)cc2c(=O)cc(N3CCOCC3)oc12 [AZD8186] (first compound max 1 µM, 7x7, partner max 3 µM) | 0.343 | 0.624 | 0.995 | 0.6 | 0.124 | 0.449 | 0.949 | 0.993 | 0.217 | 0.287 | 1 | 1 | 0.36 | 0.151 | 1 | 0.179 | 0.482 | 0.61 | 0.574 | 0.817 |
| Cc1c2c(nn1C)CSCc1cc(n(C)n1)CSc1cc(c3ccccc3c1)OCCCc1c(C(=O)O)n(C)c3c-2c(Cl)ccc13 [AZD5991] + Cc1cc2ncnn2cc1Nc1ncc2c(n1)n(C1CCOCC1)c(=O)n2C [AZD7648] (first compound max 1 µM, 7x7, partner max 10 µM) | 0.15 | 0.468 | 1 | 0.419 | 0.168 | 0.305 | 0.957 | 1 | 0.127 | 0.191 | 1 | 1 | 0.483 | 0.576 | 1 | 0.192 | 0.323 | 0.692 | 0.722 | 0.788 |
